Molecular target: hERG1a (human ether-a-go-go-related gene potassium channel, Kv11.1) (Homo sapiens, UniProt Q12809)
Assay type: cell-based

Chain of hERG1a (human ether-a-go-go-related gene potassium channel, Kv11.1) (Q12809 whole entry): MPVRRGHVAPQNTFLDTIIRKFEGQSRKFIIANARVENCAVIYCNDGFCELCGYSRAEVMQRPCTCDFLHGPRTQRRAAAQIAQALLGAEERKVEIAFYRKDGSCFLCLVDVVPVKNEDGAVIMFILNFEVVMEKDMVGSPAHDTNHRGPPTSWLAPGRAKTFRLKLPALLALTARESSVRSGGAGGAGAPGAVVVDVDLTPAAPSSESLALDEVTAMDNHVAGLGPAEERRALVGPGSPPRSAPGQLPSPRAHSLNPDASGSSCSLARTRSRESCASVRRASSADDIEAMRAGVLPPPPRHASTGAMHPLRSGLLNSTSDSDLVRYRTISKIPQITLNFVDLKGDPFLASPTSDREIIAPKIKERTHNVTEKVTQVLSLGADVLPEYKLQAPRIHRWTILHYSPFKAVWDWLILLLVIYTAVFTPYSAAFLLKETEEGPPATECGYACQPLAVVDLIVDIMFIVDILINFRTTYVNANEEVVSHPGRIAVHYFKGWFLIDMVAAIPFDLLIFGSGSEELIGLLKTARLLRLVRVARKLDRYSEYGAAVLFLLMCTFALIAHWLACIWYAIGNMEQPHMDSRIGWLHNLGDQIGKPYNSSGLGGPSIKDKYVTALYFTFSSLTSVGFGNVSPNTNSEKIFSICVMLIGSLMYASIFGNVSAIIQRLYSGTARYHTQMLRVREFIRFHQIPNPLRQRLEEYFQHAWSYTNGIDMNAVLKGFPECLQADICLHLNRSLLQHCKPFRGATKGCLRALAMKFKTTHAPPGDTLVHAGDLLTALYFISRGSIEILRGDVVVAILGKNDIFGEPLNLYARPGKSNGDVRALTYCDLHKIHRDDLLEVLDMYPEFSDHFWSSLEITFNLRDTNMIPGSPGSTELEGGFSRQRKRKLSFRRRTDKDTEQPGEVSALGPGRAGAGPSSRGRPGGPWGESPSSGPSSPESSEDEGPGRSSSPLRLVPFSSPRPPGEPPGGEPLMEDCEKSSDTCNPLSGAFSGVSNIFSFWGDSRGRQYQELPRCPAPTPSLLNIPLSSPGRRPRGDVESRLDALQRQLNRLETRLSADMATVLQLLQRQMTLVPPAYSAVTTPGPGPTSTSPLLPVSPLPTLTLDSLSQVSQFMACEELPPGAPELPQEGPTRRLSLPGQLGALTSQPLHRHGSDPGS

How did the IC50 turn out when `N#Cc1ccc(C(c2ccc(C#N)cc2)n2cncn2)cc1` [letrozole] was run?
Its IC50 is 0.373 µM.

Reference: publication PMC7889647 (Basic & clinical pharmacology & toxicology, 2020)
